Measured values reported in paper PMC9964544, “Evidence of Insulin-Sensitizing and Mimetic Activity of the Sesquiterpene Quinone Avarone, a Protein Tyrosine Phosphatase 1B and Aldose Reductase Dual Targeting Agent from the Marine Sponge Dysidea avara” (Pharmaceutics, 2023).
“Also recorded” adds a separate entry of the source.

Columns and labels:
Human PTP1B [1] = target: T1, Human PTP1B (Homo sapiens, UniProt P18031); assay: Kinetic analysis of PTP1B inhibition (Lineweaver-Burk plot, KM,app fit, dilution assay); settings: for Ki: fit of KM,app against avarone concentration, Equation (3)
T1 sequence (P18031 1-302): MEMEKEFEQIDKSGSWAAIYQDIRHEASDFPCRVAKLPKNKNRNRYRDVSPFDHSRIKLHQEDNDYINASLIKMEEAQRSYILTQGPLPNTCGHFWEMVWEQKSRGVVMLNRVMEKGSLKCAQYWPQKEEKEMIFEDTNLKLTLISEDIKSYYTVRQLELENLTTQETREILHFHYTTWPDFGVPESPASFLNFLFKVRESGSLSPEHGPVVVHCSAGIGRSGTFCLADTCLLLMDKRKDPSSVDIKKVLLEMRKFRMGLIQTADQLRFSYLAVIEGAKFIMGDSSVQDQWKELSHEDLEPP
Procedure: Equation (2) refers to a general case of a tight binding non-competitive inhibition model. […] The mechanism of action of avarone was evaluated by analyzing the effect of increasing avarone concentrations on the main kinetic parameters (KM and Vmax) of PTP1B. Data obtained were analyzed using the Lineweaver–Burk plot. The value of Ki was determined using the appropriate equations.
The second inhibitor molecule (IB) can only bind to EIA, generating the ternary complex (EIAIB). Considering the prevailing rapid equilibrium conditions, it was possible to derive Equation (3), which describes the dependence of KM on the avarone concentration. […] (3) KM,app=KM×{1+[I]/KiA+[I]^2/KiA×KiB}
Figure 4 Impact of avarone on PTP1B-catalyzed hydrolysis of pNPP: the Lineweaver–Burk plot. Data reported in the figure were obtained by measuring the initial hydrolysis rate of pNPP at seven different concentrations, in the presence of increasing concentration of avarone. The concentrations of avarone used were: 0 µM, (●); 4 µM, (☐); 5.5 µM, (▲); 7 µM (▽). Each test was carried out in triplicate. Data reported in the figure represent the mean value ± SD.
Figure 5 Determination of KiA and KiB for avarone. Dependence of KM,app from the avarone concentration. Data obtained were fitted using Equation (3). Data fitting was obtained using OriginPlus 2021 software.
Dilution assay. An aliquot of PTP1B was incubated for 1 h at 37°C in the
presence of saturating concentration (50 µM) of avarone (2). A control test was prepared
diluting PTP1B solution with the same volume of DMSO, the solvent used to dissolve 2.
After 1 h, an aliquot of samples was withdrawn and diluted 400 fold in buffer assay to
evaluate the residual activity of the enzyme. All tes ts were carried out in triplicate. Data
obtained were normalized respect to control sample.
Dependence of K M and Vmax from avarone (2) concentration. The concentration
of avarone used were: 0, 4.0, 5.5, and 7.0 µM. To calculate both K M and Vmax valued, we
determined the initial hydrolysis rate at seven different substrate (pNPP) concentrations
(0.5, 1, 2 4, 8 16 , 25 mM). Experimental data were fitted with Michaelis -Menten equation
using OriginPro 2021 software

C2C12 cells = assay: Seahorse XFe96 Mito Stress Test in C2C12 cells; assay type: cell-based; settings: C2C12 treated for 30 min
Procedure: C2C12 cells (3 × 10^4 cells/well) were placed in XFe96 cell culture plates. After 24 h of incubation at 37 °C, cell growth medium was substituted with an XF base medium supplemented with 2 mM glutamine, 1 mM sodium pyruvate, and 10 mM glucose, pH 7.4. The plate was then transferred in a non-CO2 incubator for 1 h at 37 °C to pre-equilibrate the cells before analysis. An XF Mito Stress Test was performed to assay the cells’ ability to exploit mitochondrial oxidative metabolism, according to the manufacturer’s instructions. The oxygen consumption rate (OCR) was evaluated after the injection of a sequence of compounds that interfere with the electron transport chain: oligomycin (1 μM), carbonyl cyanide-4 (trifluoromethoxy) phenylhydrazone (FCCP) (1 μM), and Rotenone/Antimycin A (0.5 μM). All data were normalized on the protein content of each well.
Figure 10 Results of Mito Stress Test assay. (A) C2C12 cells were subjected to Seahorse XFe96-Mito Stress Test analysis to evaluate oxygen consumption rate (OCR) in real time. OCR values were normalized on protein content. (B) Basal respiration, ATP-linked OCR, spare capacity, maximal respiration, and proton leak were calculated using data obtained from OCR plot after the administration of the adenosine triphosphate ATP synthase inhibitor oligomycin, the proton uncoupler carbonylcyanide p-trifluoromethoxyphenylhydrazone (FCCP), and the combination of the respiratory complex I inhibitor rotenone and the respiratory complex III inhibitor antimycin A. Each point reported in the OCR plot represents the medium value ± SEM obtained from independent replicates (n = 3 or 4). One-way ANOVA with Dunnett’s correction was used to assess differences in experimental features by using Prism 8 software (GraphPad). Statistical significance is annotated as follows: * p ≤ 0.01, ** p ≤ 0.001, *** p ≤ 0.0001, (t-test); ns, not significant; FC, fold change.

human recombinant AKR1B1 = target: T2, human recombinant AKR1B1 (Homo sapiens, UniProt P15121); assay: AKR1B1 inhibition assay with L-idose as substrate, NADPH oxidation (IC50); assay type: biochemical; settings: 10 mU AKR1B1, 1.6 mM L-idose, 37 °C; IC50 ± SD
T2 construct: made in house
Procedure: (§1) The purification of human recombinant AKR1B1 was performed as previously described. […] The purified enzyme, stored at −80 °C in 10 mM sodium phosphate buffer pH 7.0 containing 2 mM DTT and 30% (w/v) glycerol, was extensively dialyzed against 10 mM sodium phosphate buffer pH 7.0 before use. […] The fractions containing PTP1B were collected, concentrated, and injected into a Superdex G75 column equilibrated with Tris-HCl buffer pH 8.0 containing 150 mM NaCl and 1 mM mercaptoethanol. The fractions containing PTP1B were collected and concentrated; the purity of preparation was evaluated using SDS-PAGE. The PTP1B preparation was split into fractions of 0.5 mL volume; each fraction was stored at −80 °C.
(§2) The standard assay mixture (final volume 0.7 mL) was contained in 0.25 M sodium phosphate buffer pH 6.8, 0.18 mM NADPH, 0.4 M ammonium sulfate, 0.5 mM EDTA, and 4.7 mM GAL. One unit of enzyme activity is the amount of enzyme that catalyzes the conversion of 1 µmol of substrate/min in the above assay conditions. The same assay conditions were adopted in the inhibition studies using L-idose as the substrate at the indicated concentrations. PTP1B activity was determined using p-nitrophenylphosphate (pNPP) as the synthetic substrate. The pNPP was dissolved in 0.075 M ββ-dimethylglutarate buffer, pH 7.0, containing 1 mM dithiothreitol. Each assay was carried out at 37 °C in 1 mL of assay buffer. The reactions were started by diluting an aliquot of PTP1B preparation in the assay buffer; after 30 min, the reactions were stopped by adding 2 mL of 0.2 M KOH solution. The amount of p-nitrophenol released was determined spectrophotometrically, reading the absorbance of solutions at 400 nm (ε400nm = 18 mM^−^1cm^−^1).

TC-PTP = target: T3, TC-PTP (Homo sapiens, UniProt P17706); assay: TC-PTP inhibition (IC50), specificity of avarone; assay type: biochemical
T3 sequence (P17706 1-415): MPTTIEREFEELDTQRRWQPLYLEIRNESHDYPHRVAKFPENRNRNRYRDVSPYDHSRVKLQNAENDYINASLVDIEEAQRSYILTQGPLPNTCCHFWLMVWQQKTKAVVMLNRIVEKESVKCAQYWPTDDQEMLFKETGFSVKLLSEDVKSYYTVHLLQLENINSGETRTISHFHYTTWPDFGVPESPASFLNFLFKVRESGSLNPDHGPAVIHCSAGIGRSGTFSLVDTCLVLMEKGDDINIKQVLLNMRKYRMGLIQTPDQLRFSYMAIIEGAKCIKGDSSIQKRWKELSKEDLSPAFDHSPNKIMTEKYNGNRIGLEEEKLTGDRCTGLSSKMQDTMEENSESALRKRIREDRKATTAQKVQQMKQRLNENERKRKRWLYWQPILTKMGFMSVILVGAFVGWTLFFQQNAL
Procedure: To evaluate the capacity of avarone to specifically target the PTP1B enzyme, we determined the IC50 value for TC-PTP, another member of the tyrosine phosphatase family (Figure S14). […] To confirm this hypothesis, the interaction mode of avarone with TC-PTP was analyzed by in silico docking analysis carried out using the crystallographic structure (7F5N) deposited in the PDB database.
Figure S13. Binding sites of avarone (2) identified by docking analyses. ( A), General view
of interaction sites of avarone on PTP1B surface. (B), detail showing the molecules of
avarone bound into the active site of PTP1B. The images were obtained using the UCSF
Figure S14. Determination of the IC50 values of avarone for PTP1B (A), and TC-PTP (B).

Human PTP1B [2] = target: T1, Human PTP1B; assay: PTP1B inhibition assay with pNPP as substrate (IC50); assay type: biochemical; parameters: polyHis (N); made in house; settings: 2.5 mM pNPP, 37 °C; IC50 ± SD
Procedure: as §1, §2

CC1=CCC[C@H]2[C@](C)(CC3=CC(=O)C=CC3=O)[C@@H](C)CC[C@]12C [avarone (2), avarone]
reversibility of PTP1B inhibition (dilution assay) (Human PTP1B [1]; 50 µM avarone, 1 h at 37°C, diluted 400 fold): reversible inhibitor | Ki (Human PTP1B [1]; KiA PTP1B (first inhibitor molecule)): 15.1 ± 1.4 µM | Ki (Human PTP1B [1]; KiB PTP1B (second inhibitor molecule, binds EIA)): 1 ± 0.1 µM | type of PTP1B inhibition (Human PTP1B [1]; pNPP, 0-7 µM avarone, double reciprocal plot): competitive inhibitor; also recorded: cooperative pure competitive inhibition by two non-exclusive inhibitor molecules | basal respiration (OCR) (C2C12 cells): does not alter basal respiration | maximal respiration (C2C12 cells): slightly increases; also recorded: increases | oxygen-dependent ATP production (C2C12 cells): does not impair the oxygen-dependent ATP production | proton leak rate (C2C12 cells): without enhancing the proton leak rate | spare capacity (C2C12 cells): slightly increases; also recorded: increases | IC50 (human recombinant AKR1B1): 0.078 ± 0.017 µM | IC50 (TC-PTP): 39.2 µM | affinity for TC-PTP lower than that for PTP1B (TC-PTP; ratio of IC50 values TC-PTP / PTP1B): 5.8 fold | IC50 (Human PTP1B [2]): 6.7 ± 0.6 µM
